Measured values taken from US20220304945A1, “METHODS OF TREATING METABOLIC SYNDROME RELATED CONDITIONS USING RETINOIC ACID RECEPTOR AGONISTS” (Cornell University, priority 2014, published 2022).
Entries after “also recorded” stand apart in the source; their conditions may differ.

What was measured:
Type in all cases: in vivo, mouse
[1] = tested on: 4-HNE, oxidative stress in pancreatic islets; assay: 4-hydroxynonenal (4-HNE) staining of pancreas, HF-fed mice; details: HF diet mice, AC261066 in drinking water; vs HF-vehicle
Text: (§1) Mice, diet, and drug treatment. WT male C57/BL6 male mice were maintained on either a standard laboratory chow-fed diet (CFD) with 13% kcal fat, (diet #5053, Lab Diet, Inc, St. Louis, Mo.) or a high fat, western style diet (HFD) with 60% kcals from fat, (diet #58126, Lab Diet, Inc., St. Louis, Mo.) for 4 months. One month after the start of the high fat diet treatment, the high fat diet group was further split into 2 groups for 3 months: i) high fat diet and the drinking water containing 1% DMSO; ii) high fat diet and the drinking water containing 1.5 mg/100 ml AC261066, a specific RARβ agonist. Then mice were sacrificed by cervical dislocation. Blood and various tissue samples were harvested.
4-hydroxynonenal (4-HNE) staining. Paraffin-embedded sections (from two to four mice per group) were deparaffinized and rehydrated, and antigen retrieval was performed using an antigen unmasking solution (Vector Laboratories, H-3300). After quenching endogenous peroxidase with 3% H2O2, the tissue sections were blocked with the blocking reagent (from the M.O.M. kit from Vector Laboratories). Then, tissue sections were incubated with a 4-HNE antibody (1:400; mouse monoclonal antibody; Abcam, ab48506) overnight at 4° C. The sections were then incubated with secondary antibodies (1:200, anti-mouse IgG from the M.O.M kit). […]

RARβ2 mRNA = assay: Semi-quantitative PCR of pancreas, HF-fed mice; details: HF diet mice; vs HF-vehicle
Text: as §1
Semi-Quantitate PCR. Total RNA was extracted from mouse tissues using TRIzol reagent (Life technologies) and (1 μg) was used to synthesize cDNA. cDNA synthesis was performed at 42° C. for 1 h in a final volume of 20 μl using qScript (Quanta, MD). Semi-quantitative PCR were performed Taq DNA polymerase (Invitrogen, CA). Three step PCR was run as follows: 94° C. for 30 s, 58-64° C. for 45 s for primer annealing and 72° C. for 1 min for primer extension. The number of cycles for each primer pair for amplification in the linear range was determined experimentally. PCR products were resolved on 2% agarose gels and visualized by staining with ehtidium bromide. […]

HF-fed C57/BL6 mice = assay: HF-fed mice treated 3 months: body weight, GTT, fasting glucose (Example 22)
Description: METHODS. Preparation of RARβ agonists solution. AC261066 and AC55649 were dissolved in dimethyl sulfoxide (DMSO) at the concentration of 3.0 mg/ml and diluted in the drinking water for mice to the final concentration of 3.0-mg/100 ml. Mice, diet, and drug treatments. Wt male C57/BL6 male mice were maintained on either a standard laboratory chow-fed diet (Con) with 13% kcal fat, (diet #5053, Lab Diet, Inc, St. Louis, Mo., [n=4]) or a high fat, western style diet (HFD) with 45% kcals from fat, (diet #58126, Lab Diet, Inc., St. Louis, Mo.) for 3 months. Two weeks after the start of the HFD treatment, the HFD group was further split into 3 groups for 3 months: i) HFD and drinking water containing 1% DMSO (n=5); ii) high fat diet (HFD) and drinking water containing 3.0 mg/100 ml AC261066, a specific RARβ agonist (n=5) or iii) HFD and drinking water containing 3.0 mg/100 ml AC55649, a specific RARβ agonist (n=4). After 3 months the mice were tested for glucose intolerance with an intra-peritoneal glucose tolerance test (GTT). Mice were then sacrificed by cervical dislocation. Blood and various tissue samples were harvested.
Glucose Tolerance Test (GTT). Glucose tolerance was performed using an intraperitoneal glucose tolerance test (GTT). Mice were fasted overnight (˜16 hrs) followed by intra-peritoneal injections (n=3-5 per group) of 50% glucose in PBS at 2.0 g of glucose/kg of body weight. Tail vein blood was collected at 15, 30, 45, 60, and 120 minutes post-injection for glucose measurements using a FreeStyle Lite Blood Glucose Monitoring System (Abbott Diabetes Care, Inc. Alameda, Calif.). Random and fasting blood glucose measurements were taken from tail veins of 4 mice per group at 2-3 random time points daily or just prior to GTT. Means are expressed as ±standard error of the mean (S.E.M) and P-values were calculated using one-way analysis of variance followed by Bonferroni post-hoc analysis. Grubbs' maximum normal residual test was used for detection of one or more outliers.

Q: What does the source list for CCCCOCCOc1nc(-c2ccc(C(=O)O)c(F)c2)sc1C [AC261066]?
A: 4-HNE level (oxidative stress) in pancreatic islets [1]: reduces oxidative stress; also recorded: markedly lower; pancreatic RARβ2 mRNA level (RARβ2 mRNA): increased; glucose tolerance and area under the curve glucose (HF-fed C57/BL6 mice): improved; overnight fasting glucose levels (HF-fed C57/BL6 mice): significant reductions; decrease in body weights compared to HF-fed mice (HF-fed C57/BL6 mice; 3.0 mg/100 ml drinking water): ~10%
